According to patent US20090149453A1, “METHODS AND COMPOSITIONS FOR TREATING BACTERIAL INFECTIONS AND DISEASES ASSOCIATED THEREWITH” (ACTIVBIOTICS PHARMA LLC, priority 2002, published 2009):
In brackets after ≈: the same amount, converted by molar mass. Entries after “also recorded” stand apart in the source; their conditions may differ. Where two headings read alike, the source gives them in different places.

Experiments:
Assay type in all cases: cell-based, Staphylococcus aureus
[1] = system: S. aureus 29213, stationary-phase; test: Viability (cfu/ml) of stationary-phase cultures exposed to drugs; details: for killing effect against stationary phase cultures (summary, words): stationary phase (non-multiplying), alone or in combination; for log killing of stationary-phase cultures: summary, over 48 hours, single drugs or combination
Protocol: Cultures of S. aureus 29213 were grown to stationary-phase (an OD of 2.2 to 2.4 at 600 nm), then treated with Van and Rfz, either alone or in combination (FIG. 5; concentrations listed are in μg/ml). Rfz was used at 0.1 μg/ml, while Van was used at 15 μg/ml and 30 μg/ml, the latter concentration based on the fact that the starting culture was at a much higher density than was the log-phase cultures used in the experiments described above. It was assumed that more Van might be required to give a prolonged killing effect. In addition, one culture was treated with 15 μg/ml Van at the start of the experiment and then again 24 hours later. At 0, 24 and 48 hours, the number of viable cells was determined by plating on non-selective medium as described above.
The bacterial strain used in this study was “wild-type” S. aureus strain ATCC 29213. The strain was grown in Mueller Hinton II Broth (MHB; cationadjusted; VWR) and on Mueller Hinton Agar (MHA; VWR) plates that were made according to the manufacturer's instructions. Van (Calbiochem) was resuspended in sterile water (Fisher) at 10 mg/ml, while Rif (Calbiochem) and Rfz (ActivBiotics) were resuspended in 100% DMSO (J. T. Baker) at 1 mg/ml. All drugs were stored at −80° C. in single-use aliquots.
S. aureus strain ATCC 29213 was grown on an MHA plate at 35° C. for 18 hours. Colonies (3-5) were used to inoculate 50-100 ml of cation-adjusted MHB in a 500 ml Ehrlenmeyer flask and grown at 37° C. in a water bath shaker at 240 rpm.
(§1) For stationary phase studies, cultures were grown to an optical density of 2.2 to 2.4 at 600 nm, which represents approximately 5×10^9 cfu/ml; there would exist approximately 50 resistant mutants per nil in such a stationary phase culture. Drugs were added to the cultures to start the experiment, and then aliquots were removed at various time points, diluted in MHB if appropriate, and applied to 100 mm MHA and MHA plates containing Rif at 1 μg/ml. These plates were incubated at 35° C. for 18-24 hours, and then colonies manually counted to determine the number of cfu per nil of culture for the specific time-point/treatment. […] The Rif-containing plates were used to determine the number of Rfz-resistant bacteria present in the cultures for the specific time-point/treatment. Untreated control cultures were included in each experiment.

S. aureus 29213 = test: MIC testing according to NCCLS standard; details: S. aureus 29213, NCCLS standard MIC testing
[2] = system: S. aureus 29213, stationary-phase; test: Rif-resistant cfu/ml in drug-treated stationary-phase cultures; details: Example 3, stationary-phase, Van or Rfz alone; Van 15 μg/ml plus Rfz 0.1 μg/ml
Protocol: The emergence of Rif/Rfz-resistant cells in cultures in these experiments was monitored as previously described; the results are shown in FIG. 6.
as §1

[3] = system: S. aureus strain ATCC 29213, log-phase
Protocol: In order to characterize the population of the cultures shown in FIG. 1, aliquots at the various time points/treatments were tested for the presence of Rif-resistant mutants.
Cultures were also examined as described above for the number of cfu/ml present that were resistant to Rif (FIG. 4).
(§2) For log-phase studies, cells were grown to an optical density of 0.5 at 600 nm, which represents a culture density of 5×10^8 colony forming units (cfu)/ml for S. aureus and deviates from densities typically used in time-kill type assays (1×10^7 cfu/ml). We chose to start at a higher density because this density is more likely to reflect in vivo bioburden than lower starting densities. In addition, this starting density is critical for monitoring the emergence of ansamycin-resistant mutants because it insures that there is a starting resident population of such resistant mutants at the start of the experiment. The 10^−8 frequency of mutants to Rfz leads to a theoretical number of five mutants per ml of culture at this cell density.
as §1

S. aureus = test: Frequency of resistant mutants; details: resistance to Rfz
Protocol: as §2

[4] = system: S. aureus strain ATCC 29213, log-phase; test: Viability (cfu/ml) of log-phase cultures exposed to drugs, plated on non-selective MHA; details: for decrease in cfu/ml: drug alone: Rif 0.1 μg/ml (initial drop), Van 10 μg/ml

Compound	decrease of cfu ([1]; Example 3, stationary-phase, Rfz 0.1 μg/ml alone)	killing effect against stationary phase cultures (summary, words) [1]	log killing of stationary-phase cultures [1]	MIC (S. aureus 29213) [µg/mL]	emergence of Rif/Rfz-resistant colonies [2]	Rif-resistant cfu ([3]; Example 1, log-phase, 0.1 μg/ml alone, in 24 hours) [logs]	appearance of Rif-resistant cfu in log-phase cultures (summary, words) ([3]; log-phase, Rfz single agent or co-treatment with Van)	frequency of mutants (S. aureus)	drop in cfu/ml (logs killed) ([4]; Example 1, log-phase, 0.1 μg/ml alone, in 4 hours)	reduction of cfu/ml of the culture (cidality) ([4]; Example 2, log-phase, Rfz 0.1 μg/ml (6.5× MIC) alone, within 6 hours)	cfu/ml level after regrowth ([4]; Example 2, log-phase, Rfz alone 0.1 or 0.025 μg/ml, over 48 hours)	reduction of cfu/ml at the lower concentration compared to the higher ([4]; log-phase, Rfz 0.025 μg/ml (1.6× MIC) vs 0.1 μg/ml (6.5× MIC))	MIC (S. aureus 29213; Staphylococcus aureus, read-out: MIC) [µg/mL]	Rif-resistant cfu [3] [logs]	decrease in cfu/ml ([4]; Example 1, log-phase) [log]	viability of the cultures during treatment ([1]; Example 3, stationary-phase, Van alone 15 or 30 μg/ml)	emergence of Rif-resistant cells ([3]; Example 1, log-phase, Van 10 μg/ml alone or with Rif/Rfz 0.1 μg/ml)	significant killing ([4]; log-phase dense cultures, Van alone, after 48 hours of treatment) [logs]	killing effect at increased concentration ([4]; log-phase, vancomycin alone 15 μg/ml)
3′-hydroxy-5′-(4-isobutyl-1-piperazinyl) benzoxazinorifamycin [Rfz]	about 1 log	little or no killing effect	approximately 1 log	0.015	Resistant colonies did not appear	8	dramatic increase in Rif-resistant cfu/ml within 10 hours	10^−8	approximately 3.5 logs	approximately 3 logs	approximately 10×10^8 cfu/ml	just as effective; also recorded: as effective as 6.5× the MIC levels	–	–	–	–	–	–	–
CO[C@H]1/C=C/O[C@@]2(C)Oc3c(C)c(O)c4c(O)c(c(/C=N/N5CCN(C)CC5)c(O)c4c3C2=O)NC(=O)/C(C)=C\C=C\[C@H](C)[C@H](O)[C@@H](C)[C@@H](O)[C@@H](C)[C@H](OC(C)=O)[C@@H]1C [Rif, rifampicin, reference compound]	–	–	–	–	–	–	–	–	–	–	–	–	0.015 (≈ 0.0182 µM)	8	~2.5	–	–	–	–
CN[C@H](CC(C)C)C(=O)N[C@H]1C(=O)N[C@@H](CC(N)=O)C(=O)N[C@H]2C(=O)N[C@H]3C(=O)N[C@H](C(=O)N[C@H](C(=O)O)c4cc(O)cc(O)c4-c4cc3ccc4O)[C@H](O)c3ccc(c(Cl)c3)Oc3cc2cc(c3O[C@@H]2O[C@H](CO)[C@@H](O)[C@H](O)[C@H]2O[C@H]2C[C@](C)(N)[C@H](O)[C@H](C)O2)Oc2ccc(cc2Cl)[C@H]1O [Van, vancomycin, reference compound]	–	little or no killing effect	approximately 1 log	–	Resistant colonies did not appear	–	–	–	–	–	–	–	–	–	0.5	did not decrease significantly	little or no increase in the number of Rif-resistant cells	3	sufficient for sustained killing
